The record followed here is patent US20250388572A1, “USE OF HPK1 INHIBITOR IN PREVENTION AND/OR TREATMENT OF HUMAN PATHOGEN INFECTION” (priority 2022, published 2025).

A short description of data set [1]: in vivo. As to conditions: male, Sprague Dawley, rat. The protocol: Six male Sprague Dawley rats were administrated a single dose via intravenous injection (iv, n=3) and oral administration (po, n=3), respectively. Intravenous injection was performed by formulating the compounds into 0.25 mg/ml or 0.5 mg/mL solutions using 10% DMSO/30% PEG400/60% water and administering it at a volume of 2 mL/kg. Oral administration was performed by formulating the compounds into 0.6 mg/ml or 2.0 mg/mL homogeneous suspensions using 0.5% methylcellulose and administering it at a volume of 5 mL/kg.
The pharmacokinetic parameters of the compounds were calculated using the WinNolin non-compartmental model.

Data set [2] is described as follows: in vivo. As to conditions: male, cynomolgus monkey. The protocol:
Three male Cynomolgus macaques were administrated a single dose via intravenous injection (iv, 1 mg/kg, n=3), followed by oral administration (po, 10 mg/kg, n=3) after washing out for one week. Intravenous injection was performed by formulating the compounds into 1.0 mg/mL solutions using water or 10% DMSO/30% PEG400/water and administering it at a volume of 1 mL/kg. Oral administration was performed by formulating the compounds into 2.0 mg/mL solutions or suspensions using water or 0.5% methylcellulose/1.7 meq 1N hydrochloric acid and administering it at a volume of 5 mL/kg.
The pharmacokinetic parameters of the compounds were calculated using the non-compartmental model.

How the values of data set [3] were obtained: (§1) The procedure for identifying microsomal metabolites is as follows:
(§2) The compounds (test compounds and their numbers are shown below, among which compounds A1 and B1 are prepared by referring to the relevant method disclosed in CN110396087A) were weighed and dissolved into dimethyl sulfoxide to prepare a 20 mM solution. The compound stock solution was diluted with 50% acetonitrile in water (v/v) to a concentration of 1.0 mM as a working solution. Liver microsomes (20 mg/mL) were diluted to 1.27 mg/mL with 50 mM dipotassium hydrogen phosphate buffer as a liver microsome working solution. Reduced coenzyme was weighed and dissolved in 3307 μL of phosphate buffer (50 mM) to 5.0 mM as a reduced coenzyme working solution. For T=60 minutes samples, 4 μL of test working solution (1.0 mM) was added, followed by 316 μL of liver microsome working solution (1.27 mg/mL), and finally, 80 μL of reduced coenzyme working solution was added to start the reaction. For T=0 minutes samples, 316 μL of liver microsome working solution (1.27 mg/mL) was added and then 80 μL of reduced coenzyme working solution was added to start the reaction, without test solution incubation. After incubation at 37° C. for 60 minutes, 1200 μL of stop solution was added to stop the enzyme reaction. For T=0 minute samples, 4 μL of test working solution (1.0 mM) was added. The sample plate was placed on a vortexer and vortexed at 600 rpm for 5 minutes. Then, the sample plate was centrifuged at 4000 rpm for 10 minutes. The supernatant was removed, mixed, and dried at room temperature with nitrogen. The residue dried with nitrogen was redissolved in 300 μL of 10% acetonitrile (0.1% FA) solvent and then centrifuged at 4000 rpm for 15 minutes. The supernatant was transferred to a detection plate for mass spectrometry. Mass spectrometry was performed using LC/Q-Exactive plus.
(§3) 7-Ethoxycoumarin (10 μM) was selected as a positive control compound and operated in parallel with the compounds.

How the values of data set [4] were obtained: as §1, §2, §3
The source holds these as a separate data set.

How the values of data set [5] were obtained: as §1, §2, §3
This is another data set of the same source.

The procedure of data set [6]:
as §1, §2, §3
This is another data set of the same source.

How the values of data set [7] were obtained:
as §1, §2, §3
The source holds these as a separate data set.

Data set [8] in a line: Solid state stability of the free base crystalline form A (HPLC). The class given is physicochemical. As to conditions: closed placement at 60° C. for 1 day.

Where two headings read alike, the source gives them in different places.

One may read the AUC(0-t) as the area under the concentration-time curve up to a stated or last time point. By clearance is commonly meant the rate of elimination divided by the concentration. For orientation: bioavailability means the share of a dose that reaches the circulation, judged against a reference dose that is usually intravenous. Take `[2H]C([2H])(Oc1cc(-c2cnn(C3CCN(C)CC3)c2)cnc1N)c1cccc(C#CC(C)(C)O)c1` [C]: in the data set “in vivo [1]” (iv, 0.5 mg/kg), the exposure AUC(0-t) is 74.8 ng·h/mL and the clearance stood at 101 mL/min/kg. In addition, in the data set “in vivo [1]” (po, 3 mg/kg), the exposure AUC(0-t) worked out at 42.8 ng·h/mL and the bioavailability came to 9.52%.

Take `CN1CCC(n2cc(-c3cnc(N)c(OCc4cccc(C#CC(C)(C)O)c4)c3)cn2)CC1` [Compound A1, reference compound]: the bioavailability in “in vivo [2]” amounted to 4.61%; in the data set “in vivo [1]” (po, 10 mg/kg), 6.84%. Besides, the exposure AUC(0-t) amounted to 881 ng·h/mL in “in vivo [2]” (iv, 1 mg/kg); 388 ng·h/mL in the data set “in vivo [2]” (po, 10 mg/kg); 116 ng·h/mL in “in vivo [1]” (iv, 1 mg/kg); 79.8 ng·h/mL in the data set “in vivo [1]” (po, 10 mg/kg). The clearance in “in vivo [2]” (iv, 1 mg/kg) is 18.9 mL/min/kg; in “in vivo [1]” (iv, 1 mg/kg) it was 129 mL/min/kg. Moreover, the “remaining percentage of the parent cores after 60 min” value (shortened to “remaining percentage”) worked out at 0.36% in data set [3] (cynomolgus macaque, microsomes, 1 h, 10 µM); 2.44% in data set [4] (rat, microsomes, 1 h, 10 µM); 0.17% in data set [5] (beagle, dog, microsomes, 1 h, 10 µM); 43.84% in data set [6] (human, microsomes, 1 h, 10 µM); 1.13% in data set [7] (mouse, microsomes, 1 h, 10 µM).

On to `[2H]C([2H])([2H])N1CCC(n2cc(-c3cnc(N)c(OCc4cccc(C#CC(C)(C)O)c4)c3)cn2)CC1` [Compound A2 free base crystalline form A, 4-(3-(((2-amino-5-(1-(1-trideuteriomethylpiperidin-4-yl)-1H-pyrazol-4-yl)pyridin-3-yl)oxy)methyl)phenyl)-2-methylbut-3-yn-2-ol], for which the “HPLC Area (%) 60° C./1 day, peak 1” value in data set [8] (RRT 0.95, starting sample 0.42) was 0.41%. The “HPLC Area (%) 60° C./1 day, peak 2” value in data set [8] (RRT 1.00 (main peak), starting sample 99.26) is listed as 99.33%. The “HPLC Area (%) 60° C./1 day, peak 3” value in data set [8] (RRT 1.05, starting sample 0.22) stood at 0.17%. Moreover, the “HPLC Area (%) 60° C./1 day, peak 4” value in data set [8] (RRT 1.06, starting sample 0.10) amounted to 0.09%.

Take `CN1CCC(c2ncc(-c3cnc(N)c(OCc4cccc(C#CC(C)(C)O)c4)c3)s2)CC1` [Compound B1, reference compound]: the “remaining percentage” value in data set [3] stood at 9.11%; in data set [4], 11.21%; in data set [5] it was 0.12%; in data set [6], 51.82%; in data set [7] it was 1.24%.

As for `[2H]C([2H])([2H])N1CCC(c2ncc(-c3cnc(N)c(OCc4cccc(C#CC(C)(C)O)c4)c3)s2)CC1` [Compound B2], the “remaining percentage” value in data set [3] was found to be 23.4%; in data set [4] it was 43.9%; in data set [5] it was 8.9%; in data set [6], 70.4%; in data set [7], 42.8%.

Turning to `[2H]C([2H])([2H])C(O)(C#Cc1cccc(COc2cc(-c3cnn(C4CCN(C)CC4)c3)cnc2N)c1)C([2H])([2H])[2H]` [D], in the data set “in vivo [1]” (iv, 0.3 mg/kg), the AUC(0-t) was determined as 28.7 ng·h/mL and the clearance was found to be 151 mL/min/kg. Also, in the data set “in vivo [1]” (po, 2 mg/kg), the exposure AUC(0-t) was 9.94 ng·h/mL and the bioavailability came out at 5.2%.
